Here are results for 13 compounds from BindingDB's records for doi:10.1016/j.ejmech.2015.07.016 (China Pharmaceutical University, 2015).

The IC50 is the point on the concentration scale where inhibition reaches its midpoint.

Experiment [1] can be described thus: Antagonist activity at GP2b/3a receptor in New Zealand rabbit platelet-rich plasma assessed as inhibition of ADP-induced platelet aggregation preincubated for 1 min followed by addition of ADP by aggregometer.
A short description of experiment [2]: Antagonist activity at GP2b/3a receptor in New Zealand rabbit platelet-rich plasma assessed as inhibition of collagen-induced platelet aggregation preincubated for 1 min followed by addition of ADP by aggregometer.
A short description of experiment [3]: Antagonist activity at GP2b/3a receptor in New Zealand rabbit platelet-rich plasma assessed as inhibition of U46619-induced platelet aggregation preincubated for 1 min followed by addition of ADP by aggregometer.
Experiment [4] is described as follows: Antagonist activity at GP2b/3a receptor in New Zealand rabbit platelet-rich plasma assessed as inhibition of thrombin-induced platelet aggregation preincubated for 1 min followed by addition of ADP by aggregometer.

Square brackets hold non-standard residues; d marks the D form. Peptide text beside a SMILES is read from it. pGlu = O=C1CC[C@@H](C(=O)O)N1 A value given as a limit tells only on which side of the number the result lay.

As for `O=C(N[C@@H](Cc1c[nH]c2ccc(OCCCCC3CCNCC3)cc12)C(=O)O)c1ccc(F)cc1`, in experiment [1], the IC50 turned out to be 94.4 µM.
Turning to `COc1ccc(C(=O)N[C@@H](Cc2c[nH]c3ccc(OCCCCC4CCNCC4)cc23)C(=O)O)cc1`, the IC50 in experiment [1] is more than 500 µM.
Consider `COc1ccc(S(=O)(=O)N[C@@H](Cc2c[nH]c3ccc(OCCCCC4CCNCC4)cc23)C(=O)O)cc1`, for which, in experiment [1], the IC50 is more than 500 µM.
For `O=C(N[C@@H](Cc1c[nH]c2ccc(OCCCCC3CCNCC3)cc12)C(=O)O)c1ccccc1`, the IC50 in experiment [1] is more than 500 µM.
For `O=C(O)[C@H](Cc1c[nH]c2ccc(OCCCCC3CCNCC3)cc12)NS(=O)(=O)c1ccccc1`, the IC50 in experiment [1] was 95.7 µM.
On the same count and under the same terms, next, `O=C(N[C@@H](Cc1c[nH]c2ccc(OCCCCC3CCNCC3)cc12)C(=O)O)c1cccc(F)c1`: 96.1 µM; `O=C(N[C@@H](Cc1c[nH]c2ccc(OCCCCC3CCNCC3)cc12)C(=O)O)c1cc(Cl)cc(Cl)c1`: 86.5 µM; `Cc1ccc(S(=O)(=O)N[C@@H](Cc2c[nH]c3ccc(OCCCCC4CCNCC4)cc23)C(=O)O)cc1`: 108 µM.
Turning to `O=C(O)[C@H](Cc1c[nH]c2ccc(OCCCCC3CCNCC3)cc12)NS(=O)(=O)c1ccc(F)cc1`, the IC50 in experiment [1] turned out to be 93.1 µM.
Turning to `NC(=O)C[C@H](NC(=O)[C@@H]1CCC(=O)N1)C(=O)N[C@@H](Cc1c[nH]c2ccccc12)C(=O)O` ([pGlu]-Asn-Trp-OH), in experiment [1], the IC50 is more than 500 µM.
Consider `O=C(N[C@@H](Cc1c[nH]c2ccc(OCCCCC3CCNCC3)cc12)C(=O)O)c1ccc([N+](=O)[O-])cc1`, for which the IC50 in experiment [1] came out at 488 µM.
With `O=C(O)[C@H](Cc1c[nH]c2ccc(OCCCCC3CCNCC3)cc12)NS(=O)(=O)c1ccc(Br)cc1`, the 50% inhibitory concentration (IC50) worked out at 683 µM in experiment [2], 24.8 µM in experiment [1], 590 µM in experiment [3] and 124 µM in experiment [4].
Take `O=C(O)[C@H](Cc1c[nH]c2ccc(OCCCCC3CCNCC3)cc12)NS(=O)(=O)c1ccc([N+](=O)[O-])cc1`: the IC50 in experiment [1] was found to be 425 µM.
